Earlier results in US9011962B2, “Bovine meat compositions having enhanced quality, nutritive and health values obtained from enrichment diets” (priority 2007, dated 2015).

What was measured:
[1] = in vivo

| Bioavailability (relative) [1] | SMILES | upper limit from food and supplements likely to pose no risk of adverse health effects (FDA) [micrograms per day] | safe daily intake for human use (Rayman review) | lowest-observed adverse effect level of selenium intake (recognized by FDA) [micrograms per day] | no-observed adverse effect level (recognized by FDA) [micrograms per day] |
| --- | --- | --- | --- | --- | --- |
|  | [Se] [selenium] | 400 | approximately 15 micrograms per kilogram body weight per day | 900 | 800 |
| 245 | C[Se]CC[C@H](N)C(=O)O [Selenomethionine, selenomethionine] |  |  |  |  |
